Source: paper PMC13505187, “Fragment-Based Discovery of Fenamic Acids as Pan-Species Inhibitors of the Soluble Epoxide Hydrolase Phosphatase Domain” (ACS Chemical Biology, 2026)

How the values were obtained:
Assay type in all cases: biochemical
[1] = target: T1, rat sEH-FL (P) (Rattus norvegicus, UniProt P80299); assay: FDP-based phosphatase assay, full-length sEH; conditions: phosphatase activity of the full-length sEH protein, FDP substrate; mean ± SD, n = 3
T1 construct: using frozen sEH-PD as well as full-length human, mouse, and rat sEH
T1 sequence (P80299 1-554): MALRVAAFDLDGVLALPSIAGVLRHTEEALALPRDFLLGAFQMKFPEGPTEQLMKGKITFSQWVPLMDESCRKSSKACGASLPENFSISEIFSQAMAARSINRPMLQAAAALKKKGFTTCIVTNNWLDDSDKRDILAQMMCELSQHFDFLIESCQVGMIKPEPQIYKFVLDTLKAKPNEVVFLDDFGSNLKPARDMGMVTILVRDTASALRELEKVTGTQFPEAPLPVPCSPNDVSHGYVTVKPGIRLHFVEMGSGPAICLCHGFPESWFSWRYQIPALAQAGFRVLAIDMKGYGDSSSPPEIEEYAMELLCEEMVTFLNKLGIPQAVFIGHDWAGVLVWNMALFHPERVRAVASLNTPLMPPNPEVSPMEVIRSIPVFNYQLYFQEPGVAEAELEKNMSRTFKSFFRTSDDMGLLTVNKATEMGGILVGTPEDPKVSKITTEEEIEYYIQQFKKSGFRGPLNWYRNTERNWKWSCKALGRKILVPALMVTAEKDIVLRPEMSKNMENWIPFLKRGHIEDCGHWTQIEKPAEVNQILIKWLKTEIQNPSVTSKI
Experimental: (§1) The FDP assay was performed as published previously by Klingler et al. using frozen sEH-PD as well as full-length human, mouse, and rat sEH. In brief, the assay was performed in a black 96-well microplate in which 1 μL of compound in DMSO (or DMSO only in the case of the positive control) was mixed with 89 μL of protein solution (final concentration of 0.1 μM for sEH-PD, full-length human sEH, and full-length rat sEH and 0.01 μM for full-length mouse sEH) in phosphatase assay buffer (50 mM acetate, 10 mM MgCl2, pH 5.75) supplemented with 0.01% w/v Triton X-100. For the blank, assay buffer without protein was used. The plates were incubated at rt for 30 min to allow binding of the inhibitor. To start the reaction, 10 μL of FDP solution (10 μM final concentration) in assay buffer was added, and the fluorescence changes (λex = 485 nm, λem = 525 nm) were detected at 30 time points over the duration of 30 min using an Infinite F200 PRO plate reader (Tecan, Crailsheim, Germany). All samples were measured in triplicate. The percent inhibition was calculated relative to the activities of the blank well (without protein) and positive control well (without inhibitor).

[2] = target: T2, human sEH-FL (P) (Homo sapiens, UniProt P34913); assay: FDP-based phosphatase assay, full-length sEH; conditions: phosphatase activity of the full-length sEH protein, FDP substrate; mean ± SD, n = 3
T2 construct: The full-length human sEH was previously published by Lukin et al; made in house
T2 sequence (P34913 1-555): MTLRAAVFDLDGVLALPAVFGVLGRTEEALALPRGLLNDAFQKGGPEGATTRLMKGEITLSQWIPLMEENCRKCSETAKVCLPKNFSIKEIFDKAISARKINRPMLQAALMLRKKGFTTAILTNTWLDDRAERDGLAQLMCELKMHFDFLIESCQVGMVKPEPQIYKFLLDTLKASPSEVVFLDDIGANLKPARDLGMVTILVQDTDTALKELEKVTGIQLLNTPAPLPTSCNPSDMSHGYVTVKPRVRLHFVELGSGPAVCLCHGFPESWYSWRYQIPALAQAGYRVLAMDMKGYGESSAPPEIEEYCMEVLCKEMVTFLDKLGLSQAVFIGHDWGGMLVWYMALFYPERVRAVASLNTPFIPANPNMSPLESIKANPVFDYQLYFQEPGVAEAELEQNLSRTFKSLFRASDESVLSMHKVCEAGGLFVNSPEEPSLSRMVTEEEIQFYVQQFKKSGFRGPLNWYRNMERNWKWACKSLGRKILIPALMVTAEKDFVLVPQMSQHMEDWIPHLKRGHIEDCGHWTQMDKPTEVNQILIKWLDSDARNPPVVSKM
Experimental: as §1

[3] = target: T3, human sEH-FL (H) (Homo sapiens, UniProt P34913); assay: PHOME-based hydrolase assay, full-length sEH; conditions: hydrolase activity of the full-length sEH protein, PHOME substrate; mean ± SD, n = 3
T3 construct: The full-length human sEH was previously published by Lukin et al; made in house
T3 sequence (P34913 1-555): T2 sequence (P34913 1-555)
Experimental: The fluorescence-based sEH hydrolase activity assay was performed as described previously in a 96-well format with some minor modifications. In short, full-length sEH (3 nM final concentration for all tested proteins) was dissolved in hydrolase assay buffer (Bis-Tris buffer, pH 7) supplemented with 0.1 mg mL^–1 BSA as well as Triton-X 100 to a final concentration of 0.01%. Protein solution (89 μL) was incubated with 1 μL of different concentrations of compounds (final DMSO concentration 1%) for 30 min at rt. The reaction was started by addition of 10 μL of a cyano­(6-methoxy-2-naphthalenyl)­methyl 3-phenyloxiran-2-ylacetate (PHOME) solution (final concentration of 50 μM). Hydrolysis of the nonfluorescent substrate by sEH to release fluorescent 6-methoxynaphthaldehyde was measured (λex = 330 nm, λem = 465 nm) using a Tecan Infinite F200PRO plate reader. The reaction was monitored over a duration of 45 min (one point every minute). A blank control (no protein and no compound) and a positive control (no compound) were carried out as well. All measurements were performed in triplicate.

[4] = target: T4, human sEH-NTD (Homo sapiens, UniProt P34913); assay: FDP-based phosphatase assay, isolated N-terminal domain; conditions: phosphatase activity of the isolated N-terminal domain, FDP substrate, pH 5.75; mean ± SD, n = 3
T4 construct: made in house
T4 sequence (P34913 1-224 limits assumed): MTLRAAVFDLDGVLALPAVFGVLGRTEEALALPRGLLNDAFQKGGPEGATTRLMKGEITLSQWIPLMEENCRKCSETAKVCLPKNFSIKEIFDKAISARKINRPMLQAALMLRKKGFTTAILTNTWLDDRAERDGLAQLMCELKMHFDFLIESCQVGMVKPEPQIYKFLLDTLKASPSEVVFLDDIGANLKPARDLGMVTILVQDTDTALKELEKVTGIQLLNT
Experimental: as §1

IC50 [1]: 2800 ± 2200 nM | IC50 [2]: 4 ± 1 µM | IC50 [3]: 9.5 ± 0.5 µM | IC50 [4]: 58 ± 5 nM
Compound: O=C(O)CCCc1nc(-c2ccc(Cl)c(Cl)c2)c(-c2ccccc2)o1 [Compound 2]
